The text below walks through data of a melting point compilation (Tetko et al.; mined from patent text by program, amines drawn as free bases though some values may be those of a salt).

One may read the melting point as the temperature, or range, at which the solid turns liquid. In turn, `CSc1ccc(-n2c(-c3cccnc3)nc(SC)c(C#N)c2=O)cc1` registered a melting point of 212 to 215 °C.

For the molecule `Nc1c2c(=O)c3ccccc3c(=O)c2c(N)c2c(=O)n(CCCO)c(=O)c12`, the melting point lay in the range of 261 to 262 °C.

Take `O=C(O)CC1(c2ccc(Cl)c(Cl)c2)CNC(=O)C1` (centres undefined): the melting point was in the range of 191 to 195 °C.

The molecule `CC(C)c1cccc(C(C)C)c1NC(=O)N(C(C)C)C1COc2ccccc2C1` (centres undefined) displayed a melting point of 169 to 172 °C.

For the molecule `NC(=S)c1cccc(-c2cccc(C(N)=S)c2)c1`, the melting point was in the range of 188 to 190 °C.

Take `COc1ccc(CN2N=C(c3ccc(OC)c(OC)c3)[C@@H]3CCCC[C@@H]3C2=O)cc1` (relative stereo): the melting point was in the range of 77 to 78 °C.

Turning to `CCCCCc1c(-c2ccc3cc(O)ccc3c2)n(Cc2ccccc2)c2ccccc12`, the melting point lay within 96 to 100 °C.

For the molecule `COc1cc(CO)ccc1OCc1csc(N2CCOCC2)n1`, the melting point was in the range of 94 to 95 °C.

The molecule `Cc1sc2cc(C3=NCC4(CCNCC4)S3)[nH]c2c1N(C)S(=O)(=O)c1cccs1` registered a melting point of 196 °C.

Molecule `O=C(NC1CCNC1=O)c1cccc(-c2cccc3oc(Cc4cccc(C(F)(F)F)c4)cc23)c1` (centres undefined) returned a melting point of 110 to 120 °C.

On to `COc1cc2c(cc1OC)C1Cc3cc(OC)c(OC(=O)C=Cc4cc(OC)c(OC)c(OC)c4)cc3CN1CC2` (centres undefined), for which the melting point is 207 to 210 °C.

As to `CCc1nn(CC#N)c(CC)c1Oc1cc(Cl)cc(Cl)c1`, the melting point is 70 to 72 °C.

In turn, `CC1NS(=O)(=O)c2sccc21` (centres undefined) registered a melting point of 79 to 81 °C.

In turn, `Cc1c(C(=O)C=Cc2ccccc2F)c2ccccc2n1CCN1CCOCC1` gave a melting point of 113 to 116 °C.

`CC(C)(C)C(Cc1ccccc1)C(=O)n1ccnc1` (centres undefined): the melting point was 90 to 91 °C.

Molecule `Cc1ccnc(Nc2nc(-c3c[nH]nc3C(O)c3ccccc3)cs2)n1` (centres undefined) had a melting point of 250 °C.

`COC(=O)c1ccc2oc(-c3cc(C)ccc3OC)cc(=O)c2c1` displayed a melting point of 154 to 156 °C.

As for `COc1cc([N+](=O)[O-])c(N)cc1Cl`, the melting point lay within 128 to 129 °C.

The molecule `CC1(C)Oc2ccc(Cl)cc2C12NC(=O)NC2=O` (centres undefined) had a melting point of 228 to 229 °C.

`O=C(NCCNCCNC(=O)c1cccc2cc3ccccc3nc12)c1cccc2cc3ccccc3nc12`: the melting point was 182 to 184 °C.

Molecule `COc1cc(S(C)(=O)=O)ccc1-c1nc(C)c(-c2cccnc2)[nH]1` had a melting point of 115 to 118 °C.

`CCOC(=O)CCc1cc2c(Nc3ccc4[nH]ccc4c3)c(C#N)cnc2s1` yielded a melting point of 202 °C.

`Cc1n[nH]c2c1C[C@@H]1CN(C)CC[C@H]1C2` (relative stereo) registered a melting point of 160 to 162 °C.

With `COc1c(SCc2ccco2)ccnc1CO`, the melting point fell in the range of 56 to 58 °C.

`COc1ccc(-c2nc(C)c([N+](=O)[O-])[nH]2)cc1` had a melting point of 198 to 204 °C.

For the molecule `CC(C)(C)OC(=O)NCC(=O)Nc1ccccc1OCc1ccccc1`, the melting point lay within 80 to 82 °C.

Take `COC(C)CNS(=O)(=O)c1cc(C2(O)CCC(=O)N2C)ccc1Cl` (centres undefined): the melting point is 124 to 126 °C.

Consider `CCOC(=O)COc1ccc(C(=O)Nc2cc(OC)ccc2Sc2ccccc2-c2nnn[nH]2)cc1`, for which the melting point is 195 to 197 °C.

`CC(C)CN1CCC(N(C)S(=O)(=O)c2ccc(Nc3nccc(Nc4ccc(F)cc4)n3)cc2)CC1`: the melting point was 194 to 195 °C.

On to `CC(C)CCN1CNC(=O)C12CCNCC2`, for which the melting point was in the range of 103 to 105 °C.

`c1ccc(C(c2ccccc2)N2CC(n3ccnn3)C2)cc1` returned a melting point of 167 to 168 °C.

Take `Clc1ccc2c(N3CCNCC3)n[nH]c2c1`: the melting point lay within 135 to 137 °C.

Regarding `Cc1cc(-c2cc(C(F)F)n3ncc(C(=O)Nc4cccc(S(=O)(=O)N5CCCC5)c4)c3n2)ccc1C(F)(F)F`, the melting point was determined as 226 °C.

With `CC(C)(C)NC(=O)c1ccc(Cl)nc1`, the melting point lay within 108 to 110 °C.

Take `NS(=O)(=O)c1cc(C(=O)O)cc(NCCc2ccncc2)c1-c1ccccc1`: the melting point was in the range of 216 to 218 °C.

For `CC(C)(C)c1cc(C2=CCSCC2)c(O)c(C(C)(C)C)c1`, the melting point was 115 to 119 °C.

`CCOC(=O)C(=CNC1CC1)C(=O)c1cc(F)c(F)c(Cl)c1F` registered a melting point of 78 to 80 °C.

Molecule `Cc1ccc2[nH]cc(C3=C(c4cn(C)c5ccc(C)cc45)C(=O)N(C)C3=O)c2c1` had a melting point of 110 to 112 °C.

On to `Cc1nc(O)c(C)c(Cl)n1`, for which the melting point lay in the range of 224 to 225 °C.

As to `CCN(CCN(C)C)c1ccc(-c2ccnc(Nc3cc(OC)c(OC)c(OC)c3)n2)cn1`, the melting point amounted to 90 °C.

As to `O=C(Nc1nnc(SCC(=O)C23CC4CC(CC(C4)C2)C3)s1)C1CC1`, the melting point lay in the range of 218 to 219 °C.

The molecule `Cc1nc(OCCCCn2cncn2)c([N+](=O)[O-])c(N2CCc3ccccc3CC2)n1` had a melting point of 88 to 91 °C.

On to `CCOC(=O)c1cccc2nc(OC)n(Cc3ccc(-c4ccccc4C#N)cc3)c12`, for which the melting point lay within 160 to 161 °C.

The molecule `O=C1CCCN1C(=O)c1ccc(O)cc1` registered a melting point of 179 to 182 °C.

On to `CCOC(=O)CSc1nc(Cl)cc(NN=Cc2ccc(Cl)cc2)n1`, for which the melting point is 162 to 165 °C.

On to `COC(=O)c1ccc(NN)cc1S(=O)(=O)NC(C)(C)C`, for which the melting point fell in the range of 133 to 136 °C.

Molecule `O=C(c1ccccc1)N1CCC2CC(O)(c3ccc(F)cc3)CCC2C1` (centres undefined) returned a melting point of 84 to 85 °C.

Regarding `CCn1c2ccccc2c2oc(C(N)=O)cc(=O)c21`, the melting point fell in the range of 224 to 226 °C.

For the molecule `CCCCN1C(=O)NC(=Cc2ccc(C=O)cc2)C1=O`, the melting point came out at 180 °C.

The molecule `Fc1cc(F)cc(-c2nc(-c3ccccn3)no2)c1` registered a melting point of 115 to 119 °C.

For the molecule `CC(=O)NCc1nc2c(N)nc3cccnc3c2n1CC(C)(C)O`, the melting point fell in the range of 198 to 200 °C.

For `COCc1nc2c(NCc3c(C)cccc3C)cc(Br)cc2n1C`, the melting point was 143 to 145 °C.

With `OC(c1cccnc1)c1ccc(Cl)cc1Cl` (centres undefined), the melting point lay within 108 to 111 °C.

For the molecule `COC(=O)C1=Cc2cc(Br)cnc2N(CC(C)C)CCC1`, the melting point was in the range of 79.5 to 80.5 °C.

On to `COC(=O)c1cccnc1NS(=O)(=O)NC(C)C`, for which the melting point was 121 to 123 °C.

`CCCC1=C(C(=O)OCC)SCCS1=O` (centres undefined): the melting point was 109 to 110 °C.

`CN1CCCN(C)P1(=O)Cc1ccc(NC(=O)C2=Cc3cc(-c4ccccc4)ccc3CC2)cc1` registered a melting point of 249 to 250 °C.

Consider `COc1ccc(C(=O)Nc2ccccc2)cc1NS(=O)(=O)c1ccc(Cl)c(Cl)c1`, for which the melting point was 191 to 193 °C.

Turning to `OC(CCCN1CC=C(c2ccccc2)CC1)c1ccc(Cc2ccc(Cl)cc2)cc1` (centres undefined), the melting point lay in the range of 108 to 111 °C.

Consider `CC(C)n1nc(-c2c(-c3ccccc3)nn3ccc(N4CCN(S(=O)(=O)c5ccccc5)CC4)cc23)ccc1=O`, for which the melting point was 219 to 220 °C.

Molecule `COCCNc1cc(Cl)cc(NCCOC)c1[N+](=O)[O-]` displayed a melting point of 90 °C.

Consider `CCCCc1oc2ccc(-c3nc(C)no3)cc2c1C(=O)c1ccc(O)cc1`, for which the melting point fell in the range of 180 to 182 °C.

`CCOC(=O)CC(NC(=O)c1ccc(Cl)cc1)C(=O)c1cccs1` (centres undefined) yielded a melting point of 112 to 113 °C.

Molecule `Cn1ccc2cc(NC(=O)c3cc4cc(F)ccc4n3Cc3cccc(F)c3)ccc21` came in with a melting point of 187 to 189 °C.

On to `CCc1onc(-c2ccccc2)c1C(=O)NCCCCl`, for which the melting point was 75 to 76 °C.

Regarding `CN(Cc1ccc(NC(=O)C2=Cc3cc(-c4ccsc4)ccc3OCC2)cc1)C1CCOCC1`, the melting point was in the range of 194 to 195 °C.

In the case of `COc1ccc2c(c1)c(CC(=O)O)c(C)n2-c1nc(SC)nc2ccccc12`, the melting point is 175 to 178 °C.

With `Cc1oc(-c2ccco2)nc1COc1ccc(COc2nn(Cc3ccccc3)cc2C=O)cc1Cl`, the melting point was 158 to 159 °C.

In turn, `CCCCCCCCCCCCCC[C@@H]1CO[C@@H](CO)C1` (relative stereo) came in with a melting point of 27.1 to 27.7 °C.

`CN=C(N)Nc1nc(CCCCNC(=NC#N)NC)cs1` displayed a melting point of 119 to 122 °C.

The molecule `COC(=O)c1ccc2cc(-c3cc4c(c(C56CC7CC(CC(C7)C5)C6)c3)OCO4)ccc2c1` came in with a melting point of 217 to 220 °C.

For `C=CCN(CC=C)S(=O)(=O)c1ncn(C(=O)N(CC)CC)n1`, the melting point is 49 to 51 °C.

Molecule `CS(=O)(=O)N1CCC(C2=C(C#N)C(c3cccc(C#N)c3Br)c3c[nH]nc3N2)CC1` (centres undefined) had a melting point greater than 280 °C.

The molecule `CC(=O)OCC1OC(n2c(Br)nc3cc(Cl)c(Cl)cc32)C(OC(C)=O)C1OC(C)=O` (centres undefined) showed a melting point of less than 65 °C.

Regarding `c1ccc(-c2coc3c2ccc2ccccc23)cc1`, the melting point fell in the range of 98 to 109 °C.

On to `Nc1cccc2c1ncc1nc3n(c12)CCCC3`, for which the melting point was 275 to 278 °C.

Molecule `CCNc1nc(=S)n(Cc2ccc(OC)c(OC3CCCC3)c2)c2nc(C(C)C)[nH]c12` returned a melting point of 72 to 77 °C.

With `COc1cccc(S(=O)c2cccc(F)c2C#N)c1` (centres undefined), the melting point fell in the range of 103 to 111 °C.

The molecule `O=C(CC1c2ccccc2C(=O)N1c1ccccc1)N1CCCCC1` (centres undefined) showed a melting point of 122 to 123 °C.

Consider `CCCOc1ccccc1-c1nc2nc(SC)ncc2c(=O)[nH]1`, for which the melting point lay in the range of 179 to 181 °C.

`O[C@H](COc1cccc2cc(-c3nnc(-c4ccccc4)o3)oc12)CN1CCC(c2ccc3ccccc3c2)CC1`: the melting point was in the range of 78 to 80 °C.

Take `CN1C(=O)Cc2ccccc21`: the melting point was 83 to 84.5 °C.

On to `O=P1(c2ccccc2)c2ccccc2CN1c1ccc(Br)cc1` (centres undefined), for which the melting point lay in the range of 200 to 202 °C.

For `CN1CCN(c2n[nH]c(=S)n2C2CCc3ccccc3C2)CC1` (centres undefined), the melting point was in the range of 217 to 218 °C.

`OCCN1CCC(OC(c2ccccc2)c2ccccc2)CC1` registered a melting point of 83 to 85 °C.

With `NC(=O)c1cn(CCO)nc1[N+](=O)[O-]`, the melting point was in the range of 148 to 150 °C.

For `COc1ccccc1OCC1NC(C(=O)O)CS1` (centres undefined), the melting point was in the range of 149 to 150 °C.

Regarding `CC(C)(C)c1cc(-c2nn(-c3ccccc3)c3ncccc23)cc(C(C)(C)C)c1O`, the melting point was in the range of 174 to 175 °C.

The molecule `CC(=O)SCC(Cc1ccccc1)C(=O)Nc1ccc(C)c(C(=O)O)c1C` (centres undefined) displayed a melting point of 187 to 189 °C.
